Measurements as given in patent US20230143345A1, “PHARMACEUTICAL COMPOSITION FOR PREVENTION OR TREATMENT OF DISEASES CAUSED BY SARS-COV-2” (DONG WHA PHARM. CO., LTD., priority 2020, published 2023).
Values joined by “and” are separate entries in the source; they are usually repeats but may differ in a detail not shown here. Identical values can stand only once. Like-named read-outs stand apart in the source and are kept apart here.

What was measured:
SARS-CoV-2 [1] = experiment: microbe, parasite or virus in culture; assay type: cell-based; conditions: read-out: SARS-CoV-2 virus 50% inhibitory ability (IC50 value); VERO cells infected at MOI 0.1 for one hour, then drug; culture fluid after 48 hours, qRT-PCR
SARS-CoV-2 [2] = experiment: microbe, parasite or virus in culture; assay type: cell-based
Vero cell lines = experiment: Cell viability of Vero cells in the SARS-CoV-2 inhibition experiment (Example 2)
VERO cells = experiment: Cell viability of VERO cells by WST-1 assay (Example 3); conditions: read-out: 50% cell viability inhibitory concentration (CC50 value); VERO cells, WST-1 assay
[3] = read-out: SARS-CoV-2 virus 50% inhibitory ability (IC50 value)

Q: Which results are given for `COc1cc2cc3c(c(-c4ccc5c(c4)OCO5)c2cc1OC)C(=O)OC3` [Justicidin-B, 9-benzo[1,3]dioxol-5-yl-6,7-dimethoxy-3H-naphtho[2,3-c]furanone]?
A: IC50 (SARS-CoV-2 [1]): 0.17 µM; SARS-CoV-2 inhibitory ability (in words) (SARS-CoV-2 [2]; Vero cells, comparison at IC50 values with Remdesivir, Lopinavir and Chloroquine): remarkably more excellent; SARS-CoV-2 virus inhibitory ability (%, average ± standard deviation) (SARS-CoV-2 [2]; concentration 0.10 uM, Vero cells, 24 h): 13.37 ± 6.72%; SARS-CoV-2 virus inhibitory ability (%, average ± standard deviation) (SARS-CoV-2 [2]; concentration 0.20 uM, Vero cells, 24 h): 48.73 ± 2.82%; SARS-CoV-2 virus inhibitory ability (%, average ± standard deviation) (SARS-CoV-2 [2]; concentration 0.39 uM, Vero cells, 24 h): 88.06 ± 0.59%; SARS-CoV-2 virus inhibitory ability (%, average ± standard deviation) (SARS-CoV-2 [2]; concentration 1.56 uM, Vero cells, 24 h): 99.61 ± 0.65%; SARS-CoV-2 virus inhibitory ability (%, average ± standard deviation) (SARS-CoV-2 [2]; concentration 3.13 uM, Vero cells, 24 h): 100.03 ± 0.27%; SARS-CoV-2 virus inhibitory ability (%, average ± standard deviation) (SARS-CoV-2 [2]; concentration 12.5 uM, Vero cells, 24 h): 100.01 ± 0.14%; SARS-CoV-2 virus inhibitory ability (%, average ± standard deviation) (SARS-CoV-2 [2]; concentration 25 uM, Vero cells, 24 h): 100.00 ± 0.21%; SARS-CoV-2 virus inhibitory ability (%, average ± standard deviation) (SARS-CoV-2 [2]; concentration 50 uM, Vero cells, 24 h): 100.28 ± 0.49%; IC50 (SARS-CoV-2 [2]; [3]): 0.203 µM; Cell viability (%, average ± standard deviation) (Vero cell lines; concentration 0.10 uM): 107.08 ± 1.75%; Cell viability (%, average ± standard deviation) (Vero cell lines; concentration 0.20 uM): 110.62 ± 0.00%; Cell viability (%, average ± standard deviation) (Vero cell lines; concentration 0.39 uM): 107.70 ± 4.88%; Cell viability (%, average ± standard deviation) (Vero cell lines; concentration 1.56 uM): 102.83 ± 5.24%; Cell viability (%, average ± standard deviation) (Vero cell lines; concentration 3.13 uM): 98.69 ± 5.68%; Cell viability (%, average ± standard deviation) (Vero cell lines; concentration 6.25 uM): 94.60 ± 3.46%; Cell viability (%, average ± standard deviation) (Vero cell lines; concentration 12.5 uM): 90.01 ± 1.60%; Cell viability (%, average ± standard deviation) (Vero cell lines; concentration 25 uM): 83.49 ± 1.22%; Cell viability (%, average ± standard deviation) (Vero cell lines; concentration 50 uM): 78.67 ± 2.53%; CC50 (VERO cells): > 800 µM

Q: Which results are given for `Cc1cccc(C)c1OCC(=O)N[C@@H](Cc1ccccc1)[C@@H](O)C[C@H](Cc1ccccc1)NC(=O)[C@H](C(C)C)N1CCCNC1=O` [Lopinavir]?
A: inhibition at 25 µM (SARS-CoV-2 [2]; Severe acute respiratory syndrome coronavirus 2, Vero, 24 h, concentration 25 uM, Vero cells, 24 h, read-out: SARS-CoV-2 virus inhibitory ability (%, average ± standard deviation)): 99.01 ± 0.02%; inhibition at 50 µM (SARS-CoV-2 [2]; Severe acute respiratory syndrome coronavirus 2, Vero, 24 h, concentration 50 uM, Vero cells, 24 h, read-out: SARS-CoV-2 virus inhibitory ability (%, average ± standard deviation)): 98.2 ± 2.11%; IC50 (SARS-CoV-2 [2]; Severe acute respiratory syndrome coronavirus 2, Vero, 24 h, read-out: SARS-CoV-2 virus 50% inhibitory ability (IC50 value), Vero cells dosed while being infected, 24 h, compounds): 12.6 µM; SARS-CoV-2 virus inhibitory ability (%, average ± standard deviation) (SARS-CoV-2 [2]; concentration 0.10 uM, Vero cells, 24 h, 0.1 µM): 3.14 ± 0.24% and −0.2 ± 4.23%; SARS-CoV-2 virus inhibitory ability (%, average ± standard deviation) (SARS-CoV-2 [2]; concentration 0.20 uM, Vero cells, 24 h, 0.2 µM): 0.2 ± 2.44%; SARS-CoV-2 virus inhibitory ability (%, average ± standard deviation) (SARS-CoV-2 [2]; concentration 0.39 uM, Vero cells, 24 h, 0.39 µM): −0.60 ± 2.75% and 1.2 ± 5.71%; SARS-CoV-2 virus inhibitory ability (%, average ± standard deviation) (SARS-CoV-2 [2]; concentration 1.56 uM, Vero cells, 24 h, 1.56 µM): 0.79 ± 3.76% and 1.7 ± 0.27%; SARS-CoV-2 virus inhibitory ability (%, average ± standard deviation) (SARS-CoV-2 [2]; concentration 3.13 uM, Vero cells, 24 h, 3.13 µM): 3.03 ± 0.67% and 0.2 ± 6.78%; SARS-CoV-2 virus inhibitory ability (%, average ± standard deviation) (SARS-CoV-2 [2]; concentration 6.25 uM, Vero cells, 24 h, 6.25 µM): 3.38 ± 5.94% and −0.1 ± 1.27%; SARS-CoV-2 virus inhibitory ability (%, average ± standard deviation) (SARS-CoV-2 [2]; concentration 25 uM, Vero cells, 24 h, 25 µM): 98.6 ± 0.28%; SARS-CoV-2 virus inhibitory ability (%, average ± standard deviation) (SARS-CoV-2 [2]; concentration 50 uM, Vero cells, 24 h, 50 µM): 99.6 ± 0.57%; IC50 (SARS-CoV-2 [2]; read-out: SARS-CoV-2 virus 50% inhibitory ability (IC50 value), Vero cells dosed while being infected, 24 h, compounds): 14.5 µM

Q: `CCC(CC)COC(=O)[C@H](C)N[P@](=O)(OC[C@H]1O[C@@](C#N)(c2ccc3c(N)ncnn23)[C@H](O)[C@@H]1O)Oc1ccccc1` [Remdesivir] was tested. Which inhibition at 6.25 µM (SARS-CoV-2 [2]; Severe acute respiratory syndrome coronavirus 2, Vero, 24 h, concentration 6.25 uM, read-out: SARS-CoV-2 virus inhibitory ability (%, average ± standard deviation)) did it give?
A: 10.8 ± 43.8%

Q: What about the inhibition at 12.5 µM (SARS-CoV-2 [2]; Severe acute respiratory syndrome coronavirus 2, Vero, 24 h, concentration 12.5 uM, read-out: SARS-CoV-2 virus inhibitory ability (%, average ± standard deviation)) of the same molecule?
A: 63.6 ± 1.23%

Q: And the inhibition at 25 µM (SARS-CoV-2 [2]; Severe acute respiratory syndrome coronavirus 2, Vero, 24 h, concentration 25 uM, read-out: SARS-CoV-2 virus inhibitory ability (%, average ± standard deviation))?
A: 84.6 ± 2.21%

Q: What about the inhibition at 50 µM (SARS-CoV-2 [2]; Severe acute respiratory syndrome coronavirus 2, Vero, 24 h, concentration 50 uM, read-out: SARS-CoV-2 virus inhibitory ability (%, average ± standard deviation)) of the same molecule?
A: 94.38 ± 0.41%

Q: What about the IC50 (SARS-CoV-2 [2]; Severe acute respiratory syndrome coronavirus 2, Vero, 24 h, read-out: SARS-CoV-2 virus 50% inhibitory ability (IC50 value)) of the same molecule?
A: 10.8 µM

Q: And the “SARS-CoV-2 virus inhibitory ability (%, average ± standard deviation)” value (SARS-CoV-2 [2]; concentration 0.10 uM, 0.1 µM)?
A: −2.24 ± 7.45%

Q: What about the “SARS-CoV-2 virus inhibitory ability (%, average ± standard deviation)” value (SARS-CoV-2 [2]; concentration 0.20 uM, 0.2 µM) of the same molecule?
A: 2.60 ± 1.90% and 7.2 ± 0.17%

Q: What about the “SARS-CoV-2 virus inhibitory ability (%, average ± standard deviation)” value (SARS-CoV-2 [2]; concentration 0.39 uM, 0.39 µM) of the same molecule?
A: −1.29 ± 2.86% and 4.8 ± 4.21%

Q: And the “SARS-CoV-2 virus inhibitory ability (%, average ± standard deviation)” value (SARS-CoV-2 [2]; concentration 1.56 uM, 1.56 µM)?
A: 0.65 ± 5.05% and 7.4 ± 1.96%

Q: What about the “SARS-CoV-2 virus inhibitory ability (%, average ± standard deviation)” value (SARS-CoV-2 [2]; concentration 3.13 uM, 3.13 µM) of the same molecule?
A: 5.89 ± 3.28% and 11.8 ± 0.80%

Q: And the “SARS-CoV-2 virus inhibitory ability (%, average ± standard deviation)” value (SARS-CoV-2 [2]; concentration 6.25 uM, 6.25 µM)?
A: 16.2 ± 2.56%

Q: What about the “SARS-CoV-2 virus inhibitory ability (%, average ± standard deviation)” value (SARS-CoV-2 [2]; concentration 12.5 uM, 12.5 µM) of the same molecule?
A: 47.9 ± 0.01%

Q: And the “SARS-CoV-2 virus inhibitory ability (%, average ± standard deviation)” value (SARS-CoV-2 [2]; concentration 25 uM, 25 µM)?
A: 82.1 ± 1.40%

Q: What about the “SARS-CoV-2 virus inhibitory ability (%, average ± standard deviation)” value (SARS-CoV-2 [2]; concentration 50 uM, 50 µM) of the same molecule?
A: 93.5 ± 1.80%

Q: What about the IC50 (SARS-CoV-2 [2]; [3]) of the same molecule?
A: 12.7 µM
